Experimental findings from patent publication US11866460B2 (priority 2015, dated 2024) are described below.

Converted amounts (≈) assume the structure as drawn. “And” between values parts separate entries of the source, which are not always exact repeats. Equal entries are not always repeated. Where two headings read alike, the source gives them in different places. Where a SMILES comes first, the peptide text is derived from it. Where no end group is shown, it is not given here.

One data set relates to HIV-1US/92/727. The settings on record: human PBMCs.
The subject of the next data set is HSV-1. As to the kind of experiment: microbe, parasite or virus in culture. The settings on record: Human alphaherpesvirus 1, Vero.
Another data set has as its system Propionibacterium acnes. Nature of the data set: microbe, parasite or virus in culture. In kind it is cell-based. The settings on record: Cutibacterium acnes, 48 h.
A further data set has as its system Clostridium difficile. Nature of the data set: microbe, parasite or virus in culture. The data set is classed as cell-based. The settings on record: Clostridioides difficile, 48 h.
The next data set has as its system Haemophilus influenzae. As to the kind of experiment: microbe, parasite or virus in culture. In kind it is cell-based.
Data set [1] has as its system DENV-2 New Guinea C. Nature of the data set: microbe, parasite or virus in culture. The settings on record: Dengue virus, DENV2, Vero.
The subject of data set [2] is DENV-1 PRS41393. As to the kind of experiment: microbe, parasite or virus in culture. Particulars: Dengue virus, DENV1, Vero.
The next data set has as its system DENV-3 H87. As to the kind of experiment: microbe, parasite or virus in culture. Particulars: Dengue virus, DENV3, Vero, 0 h.
Data set [3] deals with DENV-2 New Guinea C.
A further data set deals with Vero cells. The settings on record: African green monkey.
Data set [4] concerns JUNV Candid #1. As to the kind of experiment: microbe, parasite or virus in culture. Particulars: Mammarenavirus juninense, Vero.
The test system of data set [5] is YFV 17D.
Data set [6] is described as follows: in vitro. Particulars: African green monkey, CC50.
Data set [7] has as its system DENV-4 H241. As to the kind of experiment: microbe, parasite or virus in culture. The settings on record: Dengue virus, DENV4, Vero.
The next data set has as its system LACV H44-71017. As to the kind of experiment: organism not typed. In kind it is cell-based, LaCrosse encephalitis virus. The settings on record: Vero.
Data set [8] relates to DENV-4 H241.
Data set [9] deals with YFV 17D. As to the kind of experiment: microbe, parasite or virus in culture. The settings on record: Yellow fever virus, Vero.
The test system of another data set is RVFV MP12. As to the kind of experiment: microbe, parasite or virus in culture. Particulars: Rift Valley fever virus, Vero, 0 h.
In data set [10] the test system is ZIKV FSS 13025. The settings on record: read-out: IC50 (PRNT50), plaque reduction; Vero cells, day 4.
The subject of data set [11] is ZIKV FSS 13025. The settings on record: read-out: IC50, yield reduction; Vero cells, day 3.
The subject of data set [12] is influenza A/Hong Kong/1/1968 virus (H3N2). Nature of the data set: microbe, parasite or virus in culture. Particulars: H3N2, MDCK.
In another data set the test system is HIV-1RF. In kind it is cell-based.
The subject of data set [13] is Bacillus anthracis Sterne.
Data set [14] in a line: in vitro. Particulars: human, TC50.
Data set [15] deals with Enterococcus faecalis (VRE).
The test system of a further data set is VACV NYCBH. The settings on record: 0 h.
Data set [16] can be described thus: in vitro. Particulars: dog.
Data set [17] has as its system aerobic Gram-positive bacterial isolates (S. aureus, enterococci, streptococci, and B. anthracis).
For data set [18], the system named is DENV-1 PRS41393. Particulars: -1 PRS41393, 0 h.
The nature of data set [19]: in vitro. The settings on record: Lactobacillus jensenii.
Data set [20] concerns Enterococcus faecium (VRE).
In another data set the test system is VEEV TC-83. Particulars: 0 h.
Data set [21] relates to Vero cells, erythrocyte, epithelial and endometrial cell lines.
The test system of data set [22] is Streptococcus pneumoniae (PSSP).
The test system of data set [23] is panel of enveloped viruses (DENV, JEV, YFV, CHIKV and others). The settings on record: panel of enveloped viruses (, JEV, YFV, CHIKV and others).
Data set [24] concerns Enterococcus faecalis (VSE).
Data set [25] relates to Staphylococcus aureus (MSSA).
The nature of data set [26]: in vitro. The settings on record: Lactobacillus acidophilus.
Data set [27] relates to Lactobacillus acidophilus.
The test system of another data set is CHIKV 181/25. The settings on record: 0 h.
The nature of data set [28]: in vitro. Particulars: Lactobacillus crispatus.
Data set [29] deals with JUNV Candid #1. Particulars: 0 h.
The test system of data set [30] is Streptococcus pneumoniae (PRSP).
Where [31] appears, read: 0.01 μg/mL during exposure, Day 3.
Where [32] appears, read: 0.01 μg/mL during exposure, Day 6.
The mark [33] stands for this setting: 0.1 μg/mL during exposure, Day 3.
Where [34] appears, read: 0.1 μg/mL during exposure, Day 6.
[35] abbreviates: 10 μg/mL during exposure, Day 3.
Setting [36] is: 10 μg/mL during exposure, Day 6.
Where [37] appears, read: 100 μg/mL during exposure, Day 3.
The mark [38] stands for this setting: 100 μg/mL during exposure, Day 6.
Where [39] appears, read: 1000 μg/mL during exposure, Day 3.
Where [40] appears, read: 1000 μg/mL during exposure, Day 6.

With `Cc1cn([C@H]2C[C@H](N=[N+]=[N-])[C@@H](CO)O2)c(=O)[nH]c1=O` [AZT], the CC50 in the data set on human PBMCs was above 1 µM. The “TI (TC50/EC50)” value in the data set with HIV-1US/92/727 is above 342.5. Further, the EC50 in the data set with HIV-1US/92/727 (7 days) was 0.0029 µM and 0.00292 µM.

With `Nc1nc2c(ncn2COCCO)c(=O)[nH]1` [Acyclovir], in the data set with HSV-1, the 50% effective concentration (EC50) was 2.82 µM.

Take `CCC[C@@H]1C[C@@H](C(=O)N[C@@H]([C@H]2O[C@H](SC)[C@H](O)[C@@H](O)[C@H]2O)[C@H](C)Cl)N(C)C1` [Clindamycin]: the MIC was at most 0.06 µg/mL with Propionibacterium acnes, 1 µg/mL (≈ 2.35 µM) against Clostridium difficile and 4 µg/mL (≈ 9.41 µM) against Haemophilus influenzae.

On to `NC(=O)c1ncn([C@@H]2O[C@H](CO)[C@@H](O)[C@H]2O)n1` [Ribavirin], for which the EC50 in the data set with DENV-2 New Guinea C [1] was 267 µM; in the data set on DENV-2 New Guinea C [1] (0 h) it was 360 µM; in the data set with DENV-1 PRS41393 [2], 144 µM; in the data set on DENV-1 PRS41393 [2] (0 h), 206 µM; in the data set on DENV-3 H87, 176 µM; in the data set with DENV-2 New Guinea C [3] it was 203 µM and 185 µM. Also, the EC50 in the data set on JUNV Candid #1 [4] is 73.2 µM; in the data set on JUNV Candid #1 [4] (0 h), 63.7 µM; in the data set on YFV 17D [5], 212 µM and 170 µM; in the data set on DENV-4 H241 [7] it was 253 µM; in the data set with DENV-4 H241 [7] (0 h), 395 µM; with LACV H44-71017, 161 µM. For the same molecule, the EC50 in the data set on LACV H44-71017 (0 h) is 143 µM; in the data set with DENV-4 H241 [8], 209 µM and 284 µM; in the data set with YFV 17D [9] it was 203 µM; in the data set with YFV 17D [9] (0 h), 258 µM; in the data set with RVFV MP12 it was 140 µM. Further, the CC50 in the data set on Vero cells is 577 µM; in “in vitro [6]”, above 750 µM.

In the case of `CC(C)C[C@@H](NC(=O)[C@@H](CCCCN)NC(=O)[C@@H](CO)NC(=O)[C@@H](CCC(N)=O)NC(=O)[C@@H](CC(C)C)NC(=O)[C@@H](Cc1c[nH]c2ccccc12)NC(=O)[C@H](NC(=O)[C@@H](Cc1c[nH]c2ccccc12)NC(=O)[C@H](NC(=O)[C@@H](CC(=O)O)NC(=O)[C@@H](CCCNC(=N)N)NC(=O)[C@@H](CC(C)C)NC(=O)[C@@H](Cc1c[nH]c2ccccc12)NC(=O)[C@@H](CO)NC(=O)CNC(=O)[C@H](N)CO)C(C)C)[C@H](C)O)C(=O)O` [TSG001 D-isomer] (HELM PEPTIDE1{[dS].G.[dS].[dW].[dL].[dR].[dD].[dV].[dW].[dT].[dW].[dL].[dQ].[dS].[dK].[dL]}$$$$V2.0; N-terminus and C-terminus assumed), the IC50 with ZIKV FSS 13025 [10] stood at 0.49 µM; in the data set with ZIKV FSS 13025 [11], 0.646 µM. This molecule also displayed a CC50 in the data set “in vitro [6]” of 11.7 µM.

The molecule `CC(=O)N[C@H]1[C@H]([C@H](O)[C@H](O)CO)OC(C(=O)O)=C[C@@H]1N=C(N)N` [Zanamivir] displayed an EC50 in [12] of 4.52 µM.

In the case of Nonoxynol-9 [Nonoxynol 9], the TC50 with Ca Ski cells came to 61.3 µg/mL; with Caco-2 cells it was 55.1 µg/mL; in the data set with ME180 cells it was 74.0 µg/mL; in the data set with HEC1A cells it was 62.9 µg/mL. The “Log Reduction in Virus Titer” value in the data set with HIV-1RF (setting [31]) came to 0.3 log; in the data set with HIV-1RF (setting [32]), 0.5 log; in the data set with HIV-1RF (setting [33]), 0.3 log; in the data set on HIV-1RF (setting [34]) it was 0.7 log; in the data set with HIV-1RF (1 μg/mL during exposure, Day 3), 0.3 log; in the data set on HIV-1RF (1 μg/mL during exposure, Day 6), 0 log. Also, the “Log Reduction in Virus Titer” value is listed as 0 log in the data set with HIV-1RF (setting [35]); 0 log in the data set with HIV-1RF (setting [36]); at least 3.3 log in the data set on HIV-1RF (setting [37]); 2.9 log in the data set with HIV-1RF (setting [38]); at least 2.8 log with HIV-1RF (setting [39]); at least 2.7 log with HIV-1RF (setting [40]). Besides, the “TCID50 Sample - Virus” value in the data set with HIV-1RF (setting [31]) is 5; in the data set on HIV-1RF (setting [32]) it was 6; in the data set with HIV-1RF (setting [33]), 5; with HIV-1RF (setting [34]), 5.8; with HIV-1RF (1 μg/mL during exposure, Day 3), 5; in the data set on HIV-1RF (1 μg/mL during exposure, Day 6), at least 6.6. The “TCID50 Sample - Virus” value in the data set with HIV-1RF (setting [35]) is 5.3; with HIV-1RF (setting [36]) it was at least 6.6; in the data set with HIV-1RF (setting [37]), at most 2.0; in the data set on HIV-1RF (setting [38]) it was 3.6; in the data set on HIV-1RF (setting [39]), at most 2.5; in the data set on HIV-1RF (setting [40]), at most 3.8.

Consider SGSWLRDVWTWLQSKL [TSG001], for which the MIC in data set [13] was determined as 1 µM; in data set [15], 4 µM; against Streptococcus salivarius, 4 µM; in data set [20] it was 2 µM; in data set [22], 8 µM; in data set [24], 2 µM. The MIC in data set [25] stood at 2 µM; with Streptococcus pyogenes, 4 µM; against Streptococcus agalactiae, 8 µM; in data set [30] it was 8 µM. For the same molecule, the TC50 entry (in the data set on Lactobacillus jensenii; in data set [27]; in the data set with Lactobacillus crispatus) was “non-toxic” throughout. Besides, the CC50 in the data set “in vitro [14]” is 37 µM; in “in vitro [16]”, above 200 µM; with ME180 cells (human), 37 µM; in the data set “in vitro [19]”, above 50 µM; with Vero cells, 153 µM; in “in vitro [26]”, above 50 µM. This molecule also came in with a CC50 in “in vitro [28]” above 50 µM. For the same molecule, the MHC with human erythrocyte cells worked out at 50 µM. Also, the EC50 with VACV NYCBH is above 12.5 µM; in the data set with DENV-1 PRS41393 [18] it was 3.42 µM; in the data set with Marburg virus (MARV) it was 0.637 µM; in the data set on Ebola virus (EBOV), 0.934 µM; in the data set with VEEV TC-83 it was above 12.5 µM; in [23], below 3 µM. Besides, the results for the EC50 in the data set with CHIKV 181/25 and in the data set on JUNV Candid #1 [29] were 2.24 µM and above 75 µM, respectively. In addition, in data set [17], the “MICs, range over isolates” value fell in the range of 2 to 16 µg/mL. Besides, in data set [21], the “cytotoxicity” value is given as “minimal cytotoxicity”. The “TI (TC50/EC50)” value in the data set with HIV-1US/92/727 is listed as 8.93.

For orientation: EC50 means the midpoint of the concentration-response curve. In general, IC50 refers to the concentration at which inhibition is half-maximal.
